Experimental findings from PubChem BioAssay AID1259408 (Genetic Toxicology Data Bank (GENE-TOX), 2018) are described below.

The source made the active and inactive calls. How the calls were made is not given here.

This data set relates to GENE-TOX genotoxicity assays, various organisms and cells. The experiment in a line: GENE-TOX mutagenicity studies. As to conditions: for call: Assay Type: In vivo carcinogenicity studies. From the text:
GENE-TOX provides genetic toxicology (mutagenicity) test data from expert peer review of open scientific literature for more than 3,000 chemicals from the United States Environmental Protection Agency (EPA). GENE-TOX was established to select assay systems for evaluation, review data in the scientific literature, and recommend proper testing protocols and evaluation procedures for these systems.
GENE-TOX covers the years 1991 - 1998. It is no longer updated.
This is an archive assay for GENE-TOX mutagenicity studies.

The mark [1] stands for this setting: Species/Cell Type: Drosophila melanogaster, Assay Type: Sex-linked recessive lethal gene mutation, Assay Code: SRL+, Evaluation Type: Evaluation A (Pre-1980).
[2] abbreviates: Species/Cell Type: Nonhuman, Assay Type: Sister-chromatid exchange (SCE) in vitro, Assay Code: SC2T, Evaluation Type: Evaluation B (Post-1980).
The mark [3] stands for this setting: Species/Cell Type: Saccharomyces cerevisiae, Assay Type: Mitotic recombination or gene conversion, Assay Code: YEC+, Evaluation Type: Evaluation A (Pre-1980).
[4] abbreviates: Species/Cell Type: Saccharomyces cerevisiae, Assay Type: Mitotic recombination or gene conversion, Assay Code: YEH+, Evaluation Type: Evaluation A (Pre-1980).
Where [5] appears, read: Species/Cell Type: Allium cepa, Assay Type: Chromosome aberrations, Assay Code: ALC+D, Dose Response: With dose response, Evaluation Type: Evaluation A (Pre-1980).
Where [6] appears, read: Species/Cell Type: Mammalian polychromatic erythrocytes, Assay Type: Micronucleus test, chromosome aberrations, Assay Code: MNTT, Evaluation Type: Evaluation A (Pre-1980).
Where [7] appears, read: Species/Cell Type: Salmonella typhimurium (one or more of the five standard strains: TA98, TA100, TA1535, TA1537, and TA1538), Assay Type: Histidine reverse gene mutation, Ames assay, Assay Code: SAL-, Evaluation Type: Evaluation A (Pre-1980).
[8] abbreviates: Species/Cell Type: Escherichia coli polA (W3119 vs P3478), Assay Type: Rec-assay, DNA effects (bacterial DNA repair), Assay Code: RE1T, Evaluation Type: Evaluation A (Pre-1980).
Where [9] appears, read: Species/Cell Type: Human lymphocytes, Assay Type: Sister-chromatid exchange (SCE) in vitro, Assay Code: SCLT, Evaluation Type: Evaluation B (Post-1980).
Where [10] appears, read: Species/Cell Type: Human, Assay Type: Sister-chromatid exchange (SCE) in vitro, Assay Code: SC1T, Evaluation Type: Evaluation B (Post-1980).
Setting [11] is: Species/Cell Type: Nonhuman, Assay Type: Sister-chromatid exchange (SCE) in vitro, Assay Code: SC2+D, Dose Response: With dose response, Evaluation Type: Evaluation B (Post-1980).
[12] abbreviates: Species/Cell Type: Salmonella typhimurium (one or more of the five standard strains: TA98, TA100, TA1535, TA1537, and TA1538), Assay Type: Histidine reverse gene mutation, Ames assay, Assay Code: SALT, Evaluation Type: Evaluation A (Pre-1980).
The mark [13] stands for this setting: Species/Cell Type: Human lymphocytes, Assay Type: Sister-chromatid exchange (SCE) in vitro, Assay Code: SCL+D, Dose Response: With dose response, Evaluation Type: Evaluation B (Post-1980).
Setting [14] is: Species/Cell Type: Human, Assay Type: Sister-chromatid exchange (SCE) in vitro, Assay Code: SC1+D, Dose Response: With dose response, Evaluation Type: Evaluation B (Post-1980).

Take `FC(F)(F)C(Cl)Br` (configuration not stated): the mutagenic call was “inactive; negative” (Species/Cell Type: Chinese hamster lung (V79) cells, Assay Type: Forward gene mutation at the HPRT or ouabain locus, Assay Code: V79-, Evaluation Type: Evaluation A (Pre-1980)); “active; positive” under setting [1]; “active; positive” (Species/Cell Type: Human lymphocytes, Assay Type: Sister-chromatid exchange (SCE) in vivo, Assay Code: SCY+, Evaluation Type: Evaluation B (Post-1980)); “inactive; negative” (Species/Cell Type: Mouse, Sex: Male, Assay Type: Sperm morphology, Assay Code: SPI-, Evaluation Type: Evaluation A (Pre-1980)); “no conclusion” under setting [2]; “no conclusion” (Species/Cell Type: Nonhuman, Assay Type: Sister-chromatid exchange (SCE) in vivo, Assay Code: SC3T, Evaluation Type: Evaluation B (Post-1980)). Further, the mutagenic call by setting is: under setting [3], “active; positive”; under setting [4], “active; positive”; (Species/Cell Type: Saccharomyces cerevisiae, Assay Type: Reverse gene mutation, Assay Code: YER+, Evaluation Type: Evaluation A (Pre-1980)) “active; positive”; (Species/Cell Type: Vicia faba, Assay Type: Chromosome aberrations, Assay Code: VIC+D, Dose Response: With dose response, Evaluation Type: Evaluation A (Pre-1980)) “active; positive”. The call (Species/Cell Type: Nonhuman, Assay Code: CCG-L, Evaluation Type: Evaluation A (Pre-1980)) was “inactive; negative”.

Take `O=NN(CCCl)C(=O)NCCCCCCNC(=O)N(CCCl)N=O`: the mutagenic call under setting [1] is “active; positive” and the mutagenic call under setting [3] was “active; positive”.

For the molecule `C=C1C(=O)OC2CC(C)C3CC(OCC)OC(OCC)C3(C)CC12` (configuration not stated), where the note is “Species/Cell Type: Salmonella typhimurium (one or more of the five standard strains: TA98, TA100, TA1535, TA1537, and TA1538), Assay Type: Histidine reverse gene mutation, Ames assay, Assay Code: SAL+, Evaluation Type: Evaluation A (Pre-1980)”, the mutagenic call was “active; positive”.

`C=CCn1c(=O)n(C)c2c(=O)n(C)c(=O)n(C)c21`: under setting [5], the mutagenic call was “active; positive”.

In the case of `c1ccc2c(c1)ncn2CN1CCCCC1`, the mutagenic call (Species/Cell Type: Arabidopsis species, Assay Type: Gene mutation, Assay Code: ARM-, Evaluation Type: Evaluation A (Pre-1980)) is “inactive; negative”.

As to `O=C(NC(=O)c1c(F)cccc1F)Nc1ccc(Cl)cc1`, the mutagenic call under setting [6] is “no conclusion”; the mutagenic call (Species/Cell Type: Mouse lymphoma (L5178Y) cells, Assay Type: Forward gene mutation at the thymidine kinase (TK) locus, chromosome aberrations, Assay Code: L51T, Evaluation Type: Evaluation A (Pre-1980)) is “no conclusion”; the mutagenic call under setting [7] is “inactive; negative”.

Consider `NCCS`, for which the mutagenic call was “no conclusion” under setting [8]; “no conclusion” under setting [9]; “no conclusion” under setting [10]; “inactive; negative” (Species/Cell Type: Neurospora crassa, Assay Type: Reverse gene mutation, Assay Code: NER-, Evaluation Type: Evaluation A (Pre-1980)); “active; positive” under setting [11]; “no conclusion” under setting [12].

Consider `CC1=C(O)C(=O)CC1`, for which the mutagenic call reads like this: under setting [13], “active; positive”; under setting [14], “active; positive”.

`CCN(CC)CC(O)CNc1c2ccc(Cl)cc2nc2ccc(OC)cc12` (configuration not stated): where the note is “Species/Cell Type: Mammalian polychromatic erythrocytes, Assay Type: Micronucleus test, chromosome aberrations, Assay Code: MNT+U, Dose Response: Unconfirmed positive response, Evaluation Type: Evaluation A (Pre-1980)”, the mutagenic call was “active; positive”.

As for `C[As+](C)(C)CC(=O)[O-]`, the mutagenic call under setting [2] is listed as “no conclusion”.

On to `C=CCc1ccc2c(c1)OCO2`, for which the mutagenic call reads like this: (Species/Cell Type: Drosophila melanogaster, Assay Type: Sex-linked recessive lethal gene mutation, Assay Code: SRL-, Evaluation Type: Evaluation A (Pre-1980)) “inactive; negative”; (Species/Cell Type: Escherichia coli polA (W3110 vs P3478), Assay Type: Rec-assay, DNA effects (bacterial DNA repair), Assay Code: RE2+, Evaluation Type: Evaluation A (Pre-1980)) “active; positive”; (Species/Cell Type: Escherichia coli polA (W3119 vs P3478), Assay Type: Rec-assay, DNA effects (bacterial DNA repair), Assay Code: RE1+, Evaluation Type: Evaluation A (Pre-1980)) “active; positive”; (Species/Cell Type: Human diploid fibroblasts, Assay Type: Unscheduled DNA synthesis (UDS) in vitro, DNA effects, Assay Code: UDH-*, Activation: With metabolic activation, Evaluation Type: Evaluation A (Pre-1980)) “inactive; negative”; under setting [6], “no conclusion”; (Species/Cell Type: Mouse, Sex: Male, Assay Type: Sperm morphology, Assay Code: SPIT, Evaluation Type: Evaluation A (Pre-1980)) “no conclusion”. Further, the mutagenic call runs as follows: (Species/Cell Type: Nonhuman, Assay Type: Sister-chromatid exchange (SCE) in vitro, Assay Code: SC2+, Evaluation Type: Evaluation B (Post-1980)) “active; positive”; under setting [4], “active; positive”; under setting [7], “inactive; negative”; (Species/Cell Type: Salmonella typhimurium, Assay Type: Forward and reverse gene mutation, host-mediated assay, Assay Code: HMA+, Evaluation Type: Evaluation A (Pre-1980)) “active; positive”; (Species/Cell Type: Syrian hamster embryo (SHE) cells, Assay Type: Cell transformation, clonal assay, Assay Code: CTC+, Evaluation Type: Evaluation A (Pre-1980)) “active; positive”; (Species/Cell Type: Tradescantia species, Assay Type: Gene mutation, Assay Code: TRM+D, Dose Response: With dose response, Evaluation Type: Evaluation A (Pre-1980)) “active; positive”. The call (Species/Cell Type: Nonhuman, Assay Code: CCG+, Evaluation Type: Evaluation A (Pre-1980)) was “active; positive”.

Turning to `Cc1cn([C@H]2C[C@H](O)[C@@H](CO)O2)c(=O)[nH]c1=O`, the mutagenic call (Species/Cell Type: Chinese hamster lung (V79) cells, Assay Type: Forward gene mutation at the HPRT or ouabain locus, Assay Code: V79+, Evaluation Type: Evaluation A (Pre-1980)) is “active; positive”; the mutagenic call (Species/Cell Type: Glycine max (soybean), Assay Type: Gene mutation, Assay Code: GLM-, Evaluation Type: Evaluation A (Pre-1980)) is “inactive; negative”; the mutagenic call under setting [9] is recorded as “no conclusion”; the mutagenic call under setting [10] is reported as “no conclusion”; the mutagenic call (Species/Cell Type: Mouse (C3H/10T1/2) cells, Assay Type: Cell transformation, Assay Code: CTH-, Evaluation Type: Evaluation A (Pre-1980)) is “inactive; negative”; the mutagenic call under setting [11] is “active; positive”. Moreover, the call (Species/Cell Type: Nonhuman, Assay Code: CCGT, Evaluation Type: Evaluation A (Pre-1980)) is “no conclusion”.

Turning to `CCOP(=S)(OCC)Oc1ccc([N+](=O)[O-])cc1`, the mutagenic call runs as follows: under setting [5], “active; positive”; (Species/Cell Type: Bacillus subtilis (H17 vs M45), Assay Type: Rec-assay, spot test, DNA effects (bacterial DNA repair), Assay Code: REWT, Evaluation Type: Evaluation A (Pre-1980)) “no conclusion”; (Species/Cell Type: Drosophila melanogaster, Assay Type: Sex-linked recessive lethal gene mutation, Assay Code: SRLT, Evaluation Type: Evaluation A (Pre-1980)) “no conclusion”; (Species/Cell Type: Escherichia coli WP2 UVRA, Assay Type: Tryptophan reverse gene mutation, Assay Code: WPU-*, Activation: With metabolic activation, Evaluation Type: Evaluation A (Pre-1980)) “inactive; negative”; under setting [8], “no conclusion”; (Species/Cell Type: Human diploid fibroblasts, Assay Type: Unscheduled DNA synthesis (UDS) in vitro, DNA effects, Assay Code: UDH-, Evaluation Type: Evaluation A (Pre-1980)) “inactive; negative”. The mutagenic call is “active; positive” under setting [13]; “active; positive” under setting [14]; “active; positive” under setting [11]; “inactive; negative” (Species/Cell Type: Saccharomyces cerevisiae, Assay Type: Mitotic recombination or gene conversion, Assay Code: YEH-, Evaluation Type: Evaluation A (Pre-1980)); “no conclusion” under setting [12].

Take `Cc1c2ccncc2c(C)c2c1[nH]c1ccc(O)cc12`: the mutagenic call (Species/Cell Type: Chinese hamster ovary (CHO) cells, Assay Type: Forward gene mutation at the HPRT locus, Assay Code: CHOT, Evaluation Type: Evaluation B (Post-1980)) is given as “no conclusion”.

Regarding `c1cc2c3c(c1)cc1ccc4cccc5cc(c3c1c45)CC2`, the mutagenic call (Species/Cell Type: Salmonella typhimurium (one or more of the five standard strains: TA98, TA100, TA1535, TA1537, and TA1538), Assay Type: Histidine reverse gene mutation, Ames assay, Assay Code: SAL+*, Activation: With metabolic activation, Evaluation Type: Evaluation A (Pre-1980)) is “active; positive”.
